Experimental data from the kinase profiling compilation of Christmann-Franck et al. (2016).

Key:
Experiment in all cases: radiometric filter-binding kinase assay
MST4 (human) = MST4 (human) (UniProt Q9P289)
RPS6KA1 KD1 KD2 (human) = RPS6KA1 KD1 KD2 (human) (UniProt Q15418)
NEK2 (human) = NEK2 (human) (UniProt P51955)
MAPK13 (human) = MAPK13 (human) (UniProt O15264)
BRSK2 (human) = BRSK2 (human) (UniProt Q8IWQ3)
EPHB3 (human) = EPHB3 (human) (UniProt P54753)
MAPK10 (human) = MAPK10 (human) (UniProt P53779)
MAPK8 (human) = MAPK8 (human) (UniProt P45983)
DYRK2 (human) = DYRK2 (human) (UniProt Q92630)
AURKA (human) = AURKA (human) (UniProt O14965)
MKNK1 (human) = MKNK1 (human) (UniProt Q9BUB5)
MAP3K11 (human) = MAP3K11 (human) (UniProt Q16584)
MAPK1 (human) = MAPK1 (human) (UniProt P28482)
CaMK1 (human) = CaMK1 (human) (UniProt Q14012)
DYRK1A (human) = DYRK1A (human) (UniProt Q13627)
MAPKAPK3 (human) = MAPKAPK3 (human) (UniProt Q16644)
MARK2 (human) = MARK2 (human) (UniProt Q7KZI7)
MAPK12 (human) = MAPK12 (human) (UniProt P53778)
[1] = test system: SGK1 (human), O00141 [S422D]
PAK4 (human) = PAK4 (human) (UniProt O96013)
MAPK3 (human) = MAPK3 (human) (UniProt P27361); conditions: compound 10.0 µM
PRKAA1 or PRKAA2 (rat) = conditions: accession and sequence are those of the human protein
HIPK2 (human) = HIPK2 (human) (UniProt Q9H2X6)
PLK1 (human) = PLK1 (human) (UniProt P53350)
IKBKE (human) = IKBKE (human) (UniProt Q14164)
PRKACA (human) = PRKACA (human) (UniProt P17612)
SYK (human) = SYK (human) (UniProt P43405)
CHEK2 (human) = CHEK2 (human) (UniProt O96017)
ERBB4 (human) = ERBB4 (human) (UniProt Q15303)
PAK7 (human) = PAK7 (human) (UniProt Q9P286)
NUAK1 (human) = NUAK1 (human) (UniProt O60285)
[2] = test system: AKT1 (human), P31749 [S473D]
PRKCA (human) = PRKCA (human) (UniProt P17252)

Chain of PAK7 (human) (Q9P286 whole entry, looked up): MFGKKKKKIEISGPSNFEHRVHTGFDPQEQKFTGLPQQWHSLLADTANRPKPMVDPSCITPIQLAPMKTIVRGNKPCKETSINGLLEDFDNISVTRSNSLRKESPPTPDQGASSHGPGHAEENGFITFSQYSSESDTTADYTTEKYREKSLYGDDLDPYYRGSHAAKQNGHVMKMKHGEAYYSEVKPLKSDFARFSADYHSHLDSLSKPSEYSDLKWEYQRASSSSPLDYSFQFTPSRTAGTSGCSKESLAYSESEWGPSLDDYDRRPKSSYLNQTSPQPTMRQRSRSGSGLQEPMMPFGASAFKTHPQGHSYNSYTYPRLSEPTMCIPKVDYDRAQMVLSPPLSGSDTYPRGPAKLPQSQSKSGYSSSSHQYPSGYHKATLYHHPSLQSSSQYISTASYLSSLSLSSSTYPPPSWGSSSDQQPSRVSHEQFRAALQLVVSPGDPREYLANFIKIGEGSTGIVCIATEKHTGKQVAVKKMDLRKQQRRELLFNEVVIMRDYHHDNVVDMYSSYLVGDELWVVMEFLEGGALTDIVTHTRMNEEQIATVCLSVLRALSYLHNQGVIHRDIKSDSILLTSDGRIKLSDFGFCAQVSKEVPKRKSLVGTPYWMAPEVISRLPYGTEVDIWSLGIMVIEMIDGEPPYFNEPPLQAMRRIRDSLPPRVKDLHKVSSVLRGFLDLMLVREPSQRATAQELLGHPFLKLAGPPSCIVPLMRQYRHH
Chain of CaMK1 (human) (Q14012 whole entry, looked up): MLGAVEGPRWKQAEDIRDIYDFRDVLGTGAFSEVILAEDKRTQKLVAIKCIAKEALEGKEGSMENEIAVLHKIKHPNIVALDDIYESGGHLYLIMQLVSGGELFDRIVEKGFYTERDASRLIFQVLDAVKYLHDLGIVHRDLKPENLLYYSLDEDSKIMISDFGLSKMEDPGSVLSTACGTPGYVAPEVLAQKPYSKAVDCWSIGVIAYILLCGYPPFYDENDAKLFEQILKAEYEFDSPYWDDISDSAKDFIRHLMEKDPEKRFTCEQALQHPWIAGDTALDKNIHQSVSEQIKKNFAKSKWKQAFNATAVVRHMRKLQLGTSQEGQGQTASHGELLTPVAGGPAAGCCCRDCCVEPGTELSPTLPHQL
Chain of MAPK10 (human) (P53779 whole entry, looked up): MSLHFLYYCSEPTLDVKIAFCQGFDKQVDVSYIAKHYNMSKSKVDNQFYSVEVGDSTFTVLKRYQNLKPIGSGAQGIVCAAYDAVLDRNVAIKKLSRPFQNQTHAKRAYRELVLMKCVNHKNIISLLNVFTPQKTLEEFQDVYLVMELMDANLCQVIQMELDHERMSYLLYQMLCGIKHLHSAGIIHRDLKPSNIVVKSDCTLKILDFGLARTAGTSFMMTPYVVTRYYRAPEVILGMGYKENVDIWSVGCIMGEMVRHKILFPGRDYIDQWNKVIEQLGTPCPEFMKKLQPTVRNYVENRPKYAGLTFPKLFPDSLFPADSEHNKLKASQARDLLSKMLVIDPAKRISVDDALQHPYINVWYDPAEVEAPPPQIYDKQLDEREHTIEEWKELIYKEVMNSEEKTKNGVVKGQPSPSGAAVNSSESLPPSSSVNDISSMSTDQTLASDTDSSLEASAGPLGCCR
Chain of MKNK1 (human) (Q9BUB5 whole entry, looked up): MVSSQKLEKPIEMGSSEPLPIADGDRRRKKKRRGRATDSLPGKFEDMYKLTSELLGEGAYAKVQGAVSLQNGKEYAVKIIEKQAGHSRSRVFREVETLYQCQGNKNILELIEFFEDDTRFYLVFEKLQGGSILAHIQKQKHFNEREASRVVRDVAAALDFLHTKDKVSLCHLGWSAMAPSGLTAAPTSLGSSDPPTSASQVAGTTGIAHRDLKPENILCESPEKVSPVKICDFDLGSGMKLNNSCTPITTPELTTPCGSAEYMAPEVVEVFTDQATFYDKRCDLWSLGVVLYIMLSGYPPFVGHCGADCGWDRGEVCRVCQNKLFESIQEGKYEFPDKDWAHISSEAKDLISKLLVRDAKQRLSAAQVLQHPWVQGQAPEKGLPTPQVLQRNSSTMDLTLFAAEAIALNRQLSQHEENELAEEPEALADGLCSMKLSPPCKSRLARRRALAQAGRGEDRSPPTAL
Chain of ERBB4 (human) (Q15303 whole entry, looked up): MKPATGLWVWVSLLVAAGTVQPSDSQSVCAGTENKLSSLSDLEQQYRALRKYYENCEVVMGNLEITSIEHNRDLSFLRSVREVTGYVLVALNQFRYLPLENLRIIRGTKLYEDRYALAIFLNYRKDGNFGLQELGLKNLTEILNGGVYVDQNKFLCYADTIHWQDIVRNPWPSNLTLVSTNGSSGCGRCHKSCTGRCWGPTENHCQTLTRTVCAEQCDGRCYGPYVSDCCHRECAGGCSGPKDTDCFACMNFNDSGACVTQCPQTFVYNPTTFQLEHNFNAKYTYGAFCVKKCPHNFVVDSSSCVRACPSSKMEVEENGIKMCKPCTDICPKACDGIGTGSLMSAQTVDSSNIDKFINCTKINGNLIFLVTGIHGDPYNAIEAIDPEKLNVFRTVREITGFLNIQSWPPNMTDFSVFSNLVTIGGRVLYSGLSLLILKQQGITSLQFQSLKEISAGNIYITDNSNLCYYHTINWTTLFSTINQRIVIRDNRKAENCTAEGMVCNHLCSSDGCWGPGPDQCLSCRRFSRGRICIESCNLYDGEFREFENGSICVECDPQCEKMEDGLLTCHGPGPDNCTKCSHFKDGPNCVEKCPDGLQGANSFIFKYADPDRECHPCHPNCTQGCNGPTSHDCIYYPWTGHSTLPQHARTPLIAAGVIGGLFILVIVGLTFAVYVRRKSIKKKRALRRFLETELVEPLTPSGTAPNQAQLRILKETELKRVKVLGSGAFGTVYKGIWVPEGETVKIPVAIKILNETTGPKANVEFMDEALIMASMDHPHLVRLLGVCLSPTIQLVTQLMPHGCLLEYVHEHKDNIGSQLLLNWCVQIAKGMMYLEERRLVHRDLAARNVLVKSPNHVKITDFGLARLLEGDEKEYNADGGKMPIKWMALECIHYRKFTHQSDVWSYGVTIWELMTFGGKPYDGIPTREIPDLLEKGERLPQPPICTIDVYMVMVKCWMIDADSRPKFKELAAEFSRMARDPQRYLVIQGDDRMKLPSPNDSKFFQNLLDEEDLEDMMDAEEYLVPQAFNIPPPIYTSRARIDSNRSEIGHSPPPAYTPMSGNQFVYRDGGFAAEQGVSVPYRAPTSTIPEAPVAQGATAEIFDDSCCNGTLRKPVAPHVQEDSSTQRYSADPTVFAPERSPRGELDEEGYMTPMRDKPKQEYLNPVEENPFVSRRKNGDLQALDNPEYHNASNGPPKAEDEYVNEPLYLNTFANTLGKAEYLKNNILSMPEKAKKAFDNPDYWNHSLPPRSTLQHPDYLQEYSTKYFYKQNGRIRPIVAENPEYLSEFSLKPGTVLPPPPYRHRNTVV
Chain of AKT1 (human), P31749 [S473D] (P31749 whole entry S473D, looked up): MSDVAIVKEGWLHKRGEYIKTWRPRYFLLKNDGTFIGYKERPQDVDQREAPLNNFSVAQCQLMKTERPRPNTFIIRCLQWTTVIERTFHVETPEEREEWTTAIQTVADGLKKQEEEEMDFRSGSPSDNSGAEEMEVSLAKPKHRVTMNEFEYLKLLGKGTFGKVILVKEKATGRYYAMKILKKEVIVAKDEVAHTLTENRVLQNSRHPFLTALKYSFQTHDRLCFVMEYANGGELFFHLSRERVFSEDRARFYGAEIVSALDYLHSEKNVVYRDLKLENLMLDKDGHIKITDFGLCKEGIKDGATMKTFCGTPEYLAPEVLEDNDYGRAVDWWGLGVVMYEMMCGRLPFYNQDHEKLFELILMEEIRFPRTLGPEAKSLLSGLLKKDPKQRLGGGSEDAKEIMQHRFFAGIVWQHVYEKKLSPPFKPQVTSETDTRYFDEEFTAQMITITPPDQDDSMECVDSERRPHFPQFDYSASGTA
Chain of MST4 (human) (Q9P289 whole entry, looked up): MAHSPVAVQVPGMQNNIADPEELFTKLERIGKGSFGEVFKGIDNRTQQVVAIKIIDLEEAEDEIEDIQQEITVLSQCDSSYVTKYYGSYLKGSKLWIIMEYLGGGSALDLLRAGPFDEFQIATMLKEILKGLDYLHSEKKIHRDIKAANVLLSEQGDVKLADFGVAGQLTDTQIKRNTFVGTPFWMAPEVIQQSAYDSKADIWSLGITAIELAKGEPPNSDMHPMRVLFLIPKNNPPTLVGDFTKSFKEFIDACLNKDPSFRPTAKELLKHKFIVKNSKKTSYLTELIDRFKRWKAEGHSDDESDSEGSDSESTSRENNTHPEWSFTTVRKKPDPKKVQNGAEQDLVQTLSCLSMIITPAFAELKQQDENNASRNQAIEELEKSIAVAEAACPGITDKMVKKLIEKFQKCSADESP

**Q.** Which residual activity (MST4 (human); compound 1.0 µM) does the source give for `CN1C(=O)[C@@H](Cc2c[nH]c3ccccc23)NC1=S` here?
**A.** 103%

**Q.** What about the residual activity (MST4 (human); compound 10.0 µM) of the same molecule?
**A.** 112%

**Q.** What about the residual activity (RPS6KA1 KD1 KD2 (human); compound 1.0 µM) of the same molecule?
**A.** 80%

**Q.** What about the residual activity (RPS6KA1 KD1 KD2 (human); compound 10.0 µM) of the same molecule?
**A.** 92%

**Q.** What about the residual activity (NEK2 (human); compound 1.0 µM) of the same molecule?
**A.** 86%

**Q.** What about the residual activity (NEK2 (human); compound 10.0 µM) of the same molecule?
**A.** 86%

**Q.** And the residual activity (MAPK13 (human); compound 1.0 µM)?
**A.** 96%

**Q.** And the residual activity (MAPK13 (human); compound 10.0 µM)?
**A.** 102%

**Q.** And the residual activity (BRSK2 (human); compound 1.0 µM)?
**A.** 91%

**Q.** What about the residual activity (BRSK2 (human); compound 10.0 µM) of the same molecule?
**A.** 85%

**Q.** And the residual activity (EPHB3 (human); compound 1.0 µM)?
**A.** 112%

**Q.** What about the residual activity (EPHB3 (human); compound 10.0 µM) of the same molecule?
**A.** 104%

**Q.** What about the residual activity (MAPK10 (human); compound 1.0 µM) of the same molecule?
**A.** 99%

**Q.** And the residual activity (MAPK10 (human); compound 10.0 µM)?
**A.** 110%

**Q.** And the residual activity (MAPK8 (human); compound 1.0 µM)?
**A.** 85%

**Q.** What about the residual activity (MAPK8 (human); compound 10.0 µM) of the same molecule?
**A.** 79%

**Q.** And the residual activity (DYRK2 (human); compound 1.0 µM)?
**A.** 105%

**Q.** What about the residual activity (DYRK2 (human); compound 10.0 µM) of the same molecule?
**A.** 107%

**Q.** What about the residual activity (AURKA (human); compound 1.0 µM) of the same molecule?
**A.** 101%

**Q.** And the residual activity (AURKA (human); compound 10.0 µM)?
**A.** 102%

**Q.** What about the residual activity (MKNK1 (human); compound 1.0 µM) of the same molecule?
**A.** 86%

**Q.** What about the residual activity (MKNK1 (human); compound 10.0 µM) of the same molecule?
**A.** 78%

**Q.** And the residual activity (MAP3K11 (human); compound 1.0 µM)?
**A.** 109%

**Q.** What about the residual activity (MAP3K11 (human); compound 10.0 µM) of the same molecule?
**A.** 109%

**Q.** What about the residual activity (MAPK1 (human); compound 1.0 µM) of the same molecule?
**A.** 94%

**Q.** What about the residual activity (MAPK1 (human); compound 10.0 µM) of the same molecule?
**A.** 92%

**Q.** What about the residual activity (CaMK1 (human); compound 1.0 µM) of the same molecule?
**A.** 94%

**Q.** And the residual activity (CaMK1 (human); compound 10.0 µM)?
**A.** 94%

**Q.** And the residual activity (DYRK1A (human); compound 1.0 µM)?
**A.** 81%

**Q.** And the residual activity (DYRK1A (human); compound 10.0 µM)?
**A.** 94%

**Q.** And the residual activity (MAPKAPK3 (human); compound 1.0 µM)?
**A.** 119%

**Q.** And the residual activity (MAPKAPK3 (human); compound 10.0 µM)?
**A.** 114%

**Q.** And the residual activity (MARK2 (human); compound 1.0 µM)?
**A.** 110%

**Q.** And the residual activity (MARK2 (human); compound 10.0 µM)?
**A.** 109%

**Q.** What about the residual activity (MAPK12 (human); compound 1.0 µM) of the same molecule?
**A.** 111%

**Q.** What about the residual activity (MAPK12 (human); compound 10.0 µM) of the same molecule?
**A.** 101%

**Q.** And the residual activity ([1]; compound 1.0 µM)?
**A.** 99%

**Q.** What about the residual activity ([1]; compound 10.0 µM) of the same molecule?
**A.** 98%

**Q.** What about the residual activity (PAK4 (human); compound 1.0 µM) of the same molecule?
**A.** 95%

**Q.** And the residual activity (PAK4 (human); compound 10.0 µM)?
**A.** 97%

**Q.** And the residual activity (MAPK3 (human))?
**A.** 93%

**Q.** And the residual activity (PRKAA1 or PRKAA2 (rat); compound 1.0 µM)?
**A.** 94%

**Q.** And the residual activity (PRKAA1 or PRKAA2 (rat); compound 10.0 µM)?
**A.** 102%

**Q.** And the residual activity (HIPK2 (human); compound 1.0 µM)?
**A.** 81%

**Q.** And the residual activity (HIPK2 (human); compound 10.0 µM)?
**A.** 88%

**Q.** What about the residual activity (PLK1 (human); compound 1.0 µM) of the same molecule?
**A.** 81%

**Q.** And the residual activity (PLK1 (human); compound 10.0 µM)?
**A.** 88%

**Q.** And the residual activity (IKBKE (human); compound 1.0 µM)?
**A.** 90%

**Q.** And the residual activity (IKBKE (human); compound 10.0 µM)?
**A.** 86%

**Q.** And the residual activity (PRKACA (human); compound 1.0 µM)?
**A.** 95%

**Q.** And the residual activity (PRKACA (human); compound 10.0 µM)?
**A.** 93%

**Q.** And the residual activity (SYK (human); compound 1.0 µM)?
**A.** 84%

**Q.** What about the residual activity (SYK (human); compound 10.0 µM) of the same molecule?
**A.** 125%

**Q.** And the residual activity (CHEK2 (human); compound 1.0 µM)?
**A.** 92%

**Q.** What about the residual activity (CHEK2 (human); compound 10.0 µM) of the same molecule?
**A.** 86%

**Q.** What about the residual activity (ERBB4 (human); compound 1.0 µM) of the same molecule?
**A.** 109%

**Q.** What about the residual activity (ERBB4 (human); compound 10.0 µM) of the same molecule?
**A.** 104%

**Q.** And the residual activity (PAK7 (human); compound 1.0 µM)?
**A.** 119%

**Q.** What about the residual activity (PAK7 (human); compound 10.0 µM) of the same molecule?
**A.** 99%

**Q.** What about the residual activity (NUAK1 (human); compound 1.0 µM) of the same molecule?
**A.** 108%

**Q.** What about the residual activity (NUAK1 (human); compound 10.0 µM) of the same molecule?
**A.** 101%

**Q.** And the residual activity ([2]; compound 1.0 µM)?
**A.** 96%

**Q.** What about the residual activity ([2]; compound 10.0 µM) of the same molecule?
**A.** 91%

**Q.** And the residual activity (PRKCA (human); compound 1.0 µM)?
**A.** 97%

**Q.** What about the residual activity (PRKCA (human); compound 10.0 µM) of the same molecule?
**A.** 96%
